Drawing on PubChem BioAssay AID2305 (GlaxoSmithKline (GSK), 2010), this text covers IC50 for 35 compounds.

The IC50 is the concentration needed to halve the response being measured.

For this assay, the system named is P. falciparum 3D7 growth, pLDH absorbance. The assay is described as follows: blood-stage malaria parasite growth potency – strain 3D7, dose response (AID 2305).
As to `O=C(NCCCN1CCCC1=O)c1cnc(N2CCC(Oc3ccccc3)CC2)c(Cl)c1`, the concentration for half-maximal inhibition (IC50) worked out at 0.3 µM.

In turn, `CCCCCN1CCCN(Cc2cccc(NC(=O)c3cc4ccccc4s3)c2)CC1` had an IC50 of 0.59 µM.

Take `Cc1cc(-c2ccc(S(=O)(=O)Nc3cc4c(cc3OC(C)C)CCN(C)CC4)cc2)ccc1Cl`: the IC50 is 0.9 µM.

`COc1ccccc1CNC(=O)c1cc(Br)cc(N2CCN(c3ccncc3)CC2)c1` came in with a half-maximal inhibitory concentration (IC50) of 0.95 µM.

`COCCNCc1cccc(-c2ccccc2CN(C(=O)c2ccc3c(c2)OCO3)c2ccc(OC)cc2)c1` gave a half-inhibitory concentration (IC50) of 1.11 µM.

Compound `O=C(/C=C/c1ccc(Cl)cc1)NCCCCCN1CCN(C(=O)C=Cc2ccc(Cl)c(Cl)c2)CC1` came in with a concentration for half-maximal inhibition (IC50) of 0.99 µM.

For `Cn1nccc1C(=O)NCCNCc1ccc(-c2ccc(-c3nc4ccc(C(F)(F)F)cc4[nH]3)s2)cc1`, the half-inhibitory concentration (IC50) was 0.19 µM.

`CCOC(C(=O)OCCN(C(C)C)C(C)C)(c1ccccc1)c1ccccc1`: the IC50 is 0.87 µM.

As for `Cc1cccc2[nH]c(-c3ccc(-c4cccc(NC(=O)c5cncn5C)c4)s3)nc12`, the IC50 was determined as 0.64 µM.

Consider `O=C(Nc1ccc(OC2CCN(Cc3ccccc3)C2)c(Cl)c1)c1ccsc1` (stereo not given), for which the IC50 turned out to be 0.73 µM.

Take `CC(C)COc1ccc(Cl)cc1Cc1ccc(-c2nc3ccc(CCN(C)C)cc3[nH]2)o1`: the half-inhibitory concentration (IC50) worked out at 0.98 µM.

`Cc1cccc(CN2CCCC3(CCN(Cc4ccccc4O)C3)C2)c1` (stereo not given) showed an IC50 of 0.8 µM.

The compound `CNCC(C)(C)c1nc(-c2ccc(Cl)c(O)c2)c(-c2ccncc2)[nH]1` yielded a half-inhibitory concentration (IC50) of 0.74 µM.

`COc1ccc(S(=O)(=O)Nc2ccc(C(=O)NCc3ccc(C(F)(F)F)cc3)cc2)cc1N1CCN(CC2CC2)CC1` came in with an IC50 of 1.12 µM.

`O=C(/C=C/c1ccc(Cl)c(Cl)c1)NCCCCCN1CCC(c2c[nH]c3ccccc23)CC1` yielded an IC50 of 0.78 µM.

With `COC(=O)c1ccc(OCC(O)CO)cc1O` (stereo not given), the IC50 stood at 0.74 µM.

With `Cc1ccccc1C1CCN(C2CCC(NC(=O)/C=C/c3cccc(F)c3)CC2)CC1` (stereo not given), the 50% inhibitory concentration (IC50) came to 1.19 µM.

The compound `O=C(CCC1CCCCC1)NCCNc1cccc2ccccc12` displayed a half-maximal inhibitory concentration (IC50) of 0.83 µM.

For the compound `O=S(=O)(Nc1cccc(CCN2CCC(N3CCCCC3)CC2)c1)c1ccc(Oc2ccccc2)nc1`, the IC50 came out at 0.93 µM.

In the case of `CCC1CCc2cc(N)cc(-c3nc4c(c(C)nn4CC)c(=O)[nH]3)c2O1` (stereo not given), the half-maximal inhibitory concentration (IC50) was found to be 1.12 µM.

With `Cc1nc2nc(N)nc(N)c2c(C)c1Cc1ccccc1Cl`, the 50% inhibitory concentration (IC50) was determined as 0.11 µM.

In turn, `Cc1cc(NN=Cc2cccc(F)c2)c2cc(F)ccc2n1` came in with an IC50 of 0.48 µM.

`CNCCNCc1cccc(-c2ccc(-c3nc4ccc(C(F)(F)F)cc4[nH]3)cc2)c1`: the IC50 was 0.69 µM.

As for `O=C(NCCCCN1CC[C@@H]2c3cccc(O)c3CC[C@H]21)c1ccc(-c2ccccc2)cc1`, the IC50 worked out at 1.38 µM.

In turn, `Oc1ccccc1CN(CCCN(Cc1ccccn1)Cc1ccccc1O)Cc1ccccn1` came in with a half-maximal inhibitory concentration (IC50) of 1.06 µM.

Regarding `Cn1ccnc1CNC(=O)c1ccc(-c2cccc(-c3nc4ccc(C(F)(F)F)cc4[nH]3)c2)cc1`, the IC50 amounted to 0.72 µM.

In turn, `C=C[C@H]1CN2CC[C@H]1C[C@@H]2[C@@H](O)c1ccnc2ccccc12` gave an IC50 of 0.77 µM.

The compound `CC(C)(C)NS(=O)(=O)c1cc(C(=O)N2CCC(CCN3CCC(C(=O)c4ccc(F)cc4)CC3)(c3cccc(F)c3)CC2)c(Cl)cc1F` had an IC50 of 0.75 µM.

With `Cc1ccc(C(NC(=O)c2ccccc2)c2ccc3cccnc3c2O)cc1` (stereo not given), the half-inhibitory concentration (IC50) stood at 0.96 µM.

Compound `COc1ccc(C(=O)NC2CCN(c3ccnc4cc(Cl)ccc34)C2)cc1` (stereo not given) displayed an IC50 of 0.23 µM.

As to `COCCOC(=O)C(=O)c1c(-c2ccccc2)c(-c2ccc(OC)c(OC)c2)c2c3cc(OC)c(OC)cc3ccn12`, the IC50 stood at 0.5 µM.

In turn, `c1cc(-c2ccc(CNC3CCOCC3)cc2)cc(-c2nc3ccccc3[nH]2)c1` yielded an IC50 of 0.77 µM.

For the compound `Cn1c2c(c3ccccc31)CN(CCC1(c3ccc(Cl)c(Cl)c3)CN(C(=O)Cc3ccccc3)CCO1)CC2` (stereo not given), the IC50 was determined as 0.36 µM.

`O=C(NCC1CCN(Cc2ccc3c(c2)OCCO3)C1)c1cc(-c2ccccc2F)cs1` (stereo not given) yielded a 50% inhibitory concentration (IC50) of 1.02 µM.

As for `CCC[C@]1(C)CSc2ccccc2[C@@H](c2ccccc2)N1`, the half-maximal inhibitory concentration (IC50) came out at 0.71 µM.
